pKi: −log10 of the molar value.
These compounds were tested against T1, human mGlu 5a receptor (Homo sapiens, UniProt P41594) (assay: [3H]MPEP competition binding on membranes of EBNA cells transfected with human mGlu 5a receptor). Details: competition with [3H]MPEP (2 nM), 1 h at 4° C., EBNA cell membranes, head prints no unit.
T1 construct: expressed in transfected cells; host or cells: EBNA cells (transient transfection), membrane homogenates
Description: The pharmacological activity of the compounds was tested using the following method: For binding experiments, cDNA encoding human mGlu 5a receptor was transiently transfected into EBNA cells using a procedure described by Schlaeger and Christensen [Cytotechnology 15:1-13 (1998)]. Cell membrane homogenates were stored at −80° C. until the day of assay where upon they were thawed and resuspended and polytronised in 15 mM Tris-HCl, 120 mM NaCl, 100 mM KCl, 25 mM CaCl2, 25 mM MgCl2 binding buffer at pH 7.4 to a final assay concentration of 20 μg protein/well.
Saturation isotherms were determined by addition of twelve [^3H] MPEP concentrations (0.04-100 nM) to these membranes (in a total volume of 200 μd) for 1 h at 4° C. Competition experiments were performed with a fixed concentration of [^3H]MPEP (2 nM) and IC50 values of test compounds evaluated using 11 concentrations (0.3-10,000 nM). Incubations were performed for 1 h at 4° C.
At the end of the incubation, membranes were filtered onto unifilter (96-well white microplate with bonded GF/C filter preincubated 1 h in 0.1% PEI in wash buffer, Packard Bio-Science, Meriden, Conn.) with a Filtermate 96 harvester (Packard BioScience) and washed 3 times with cold 50 mM Tris-HCl, pH 7.4 buffer. Nonspecific binding was measured in the presence of 10 μM MPEP. The radioactivity on the filter was counted (3 min) on a Packard Top-count microplate scintillation counter with quenching correction after addition of 45 μl of microscint 40 (Canberra Packard S. A., Zürich, Switzerland) and shaking for 20 min.
For binding experiments the Ki values of the compounds tested are given. The Ki value is defined by the following formula: KiIC50/[1+L/Kd] in which the IC50 values are those concentrations of the compounds tested which cause 50% inhibition of the competing radioligand ([^3H]MPEP). L is the concentration of radioligand used in the binding experiment and the Kd value of the radioligand is empirically determined for each batch of membranes prepared.

T1 sequence (P41594 21-1180 isoform P41594-2 limits assumed): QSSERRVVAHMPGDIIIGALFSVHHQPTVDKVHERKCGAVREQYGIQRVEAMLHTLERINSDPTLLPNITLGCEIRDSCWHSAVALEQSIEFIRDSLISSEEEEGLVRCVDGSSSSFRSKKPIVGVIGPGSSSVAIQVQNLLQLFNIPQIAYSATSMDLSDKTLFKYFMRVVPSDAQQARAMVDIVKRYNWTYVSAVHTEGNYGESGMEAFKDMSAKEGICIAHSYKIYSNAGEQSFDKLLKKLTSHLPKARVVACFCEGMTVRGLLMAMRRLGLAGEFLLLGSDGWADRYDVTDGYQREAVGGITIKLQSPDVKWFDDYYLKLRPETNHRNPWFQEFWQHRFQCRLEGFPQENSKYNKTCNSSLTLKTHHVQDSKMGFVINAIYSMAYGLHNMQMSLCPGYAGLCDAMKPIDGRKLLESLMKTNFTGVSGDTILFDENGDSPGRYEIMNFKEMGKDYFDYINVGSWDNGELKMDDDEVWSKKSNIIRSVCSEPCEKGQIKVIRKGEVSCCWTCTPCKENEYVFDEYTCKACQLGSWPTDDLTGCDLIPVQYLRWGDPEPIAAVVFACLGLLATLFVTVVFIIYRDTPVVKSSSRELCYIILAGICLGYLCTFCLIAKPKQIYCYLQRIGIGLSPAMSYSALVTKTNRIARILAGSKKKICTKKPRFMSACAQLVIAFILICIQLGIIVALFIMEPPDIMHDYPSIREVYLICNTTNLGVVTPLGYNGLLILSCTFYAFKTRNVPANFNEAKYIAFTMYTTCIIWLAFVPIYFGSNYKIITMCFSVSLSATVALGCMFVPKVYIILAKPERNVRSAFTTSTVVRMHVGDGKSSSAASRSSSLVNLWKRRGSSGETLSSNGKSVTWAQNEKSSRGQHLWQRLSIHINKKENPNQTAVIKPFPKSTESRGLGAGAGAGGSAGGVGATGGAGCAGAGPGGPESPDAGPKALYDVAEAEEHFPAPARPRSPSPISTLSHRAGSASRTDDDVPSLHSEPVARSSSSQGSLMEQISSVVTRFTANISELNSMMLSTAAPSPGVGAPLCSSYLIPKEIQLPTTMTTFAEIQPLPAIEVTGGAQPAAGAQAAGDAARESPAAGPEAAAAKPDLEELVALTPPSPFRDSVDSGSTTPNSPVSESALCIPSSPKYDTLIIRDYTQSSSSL

| Structure (SMILES) | pKi |
| --- | --- |
| Cc1cc(-c2cccc(F)c2)cc(C(=O)Nc2nc(C)cs2)n1 [Example 1, 4-(3-Fluoro-phenyl)-6-methyl-pyridine-2-carboxylic acid (4-methyl-thiazol-2-yl)-amide] | 8.52 |
| Cc1cc(-c2cc(F)cc(F)c2)cc(C(=O)Nc2nc(C)cs2)n1 [Example 2, 4-(3,5-Difluoro-phenyl)-6-methyl-pyridine-2-carboxylic acid (4-methyl-thiazol-2-yl)-amide] | 8.15 |
| Cc1cc(-c2cccc(C#N)c2)cc(C(=O)Nc2nc(C)cs2)n1 [Example 3, 4-(3-Cyano-phenyl)-6-methyl-pyridine-2-carboxylic acid (4-methyl-thiazol-2-yl)-amide] | 7.96 |
| Cc1cc(-c2ccc(Cl)nc2)cc(C(=O)Nc2nc(C)cs2)n1 [Example 4, 6-Chloro-6′-methyl-[3,4′]bipyridinyl-2′-carboxylic add (4-methyl-thiazol-2-yl)-amide] | 6.61 |
| Cc1cc(-c2cc(F)ccc2F)cc(C(=O)Nc2nc(C)cs2)n1 [Example 5, 4-(2,5-Difluoro-phenyl)-6-methyl-pyridine-2-carboxylic acid (4-methyl-thiazol-2-yl)-amide] | 7.54 |
| Cc1cc(-c2cccc(OC(F)(F)F)c2)cc(C(=O)Nc2nc(C)cs2)n1 [Example 7, 6-Methyl-4-(3-trifluoromethoxy-phenyl)-pyridine-2-carboxylic acid (4-methyl-thiazol-2-yl)-amide] | 7.85 |
| Cc1cc(-c2cccc(S(C)(=O)=O)c2)cc(C(=O)Nc2nc(C)cs2)n1 [Example 8, 4-(3-Methanesulfonyl-phenyl)-6-methyl-pyridine-2-carboxylic acid (4-methyl-thiazol-2-yl)-amide] | 6.40 |
| COc1ccc(-c2cc(C)nc(C(=O)Nc3nc(C)cs3)c2)cc1 [Example 9, 4-(4-Methoxy-phenyl)-6-methyl-pyridine-2-carboxylic acid (4-methyl-thiazol-2-yl)-amide] | 5.92 |
| Cc1cc(-c2ccc(F)c(F)c2)cc(C(=O)Nc2nc(C)cs2)n1 [Example 10, 4-(3,4-Difluoro-phenyl)-6-methyl-pyridine-2-carboxylic acid (4-methyl-thiazol-2-yl)-amide] | 7.64 |
| Cc1cc(-c2cc(F)c(F)c(F)c2)cc(C(=O)Nc2nc(C)cs2)n1 [Example 11, 6-Methyl-4-(3,4,5-trifluoro-phenyl)-pyridine-2-carboxylic acid (4-methyl-thiazol-2-yl)-amide] | 8.00 |
| Cc1cc(-c2ccc(C#N)cc2)cc(C(=O)Nc2nc(C)cs2)n1 [Example 12, 4-(4-Cyano-phenyl)-6-methyl-pyridine-2-carboxylic acid (4-methyl-thiazol-2-yl)-amide] | 6.60 |
| COc1ccccc1-c1cc(C)nc(C(=O)Nc2nc(C)cs2)c1 [Example 13, 4-(2-Methoxy-phenyl)-6-methyl-pyridine-2-carboxylic acid (4-methyl-thiazol-2-yl)-amide] | 7.60 |
| Cc1cc(-c2ccccc2Cl)cc(C(=O)Nc2nc(C)cs2)n1 [Example 14, 4-(2-Chloro-phenyl)-6-methyl-pyridine-2-carboxylic acid (4-methyl-thiazol-2-yl)-amide] | 8.40 |
| Cc1cc(-c2cccc(CO)c2)cc(C(=O)Nc2nc(C)cs2)n1 [Example 15, 4-(3-Hydroxymethyl-phenyl)-6-methyl-pyridine-2-carboxylic acid (4-methyl-thiazol-2-yl)-amide] | 7.77 |
| Cc1cc(-c2cccnc2)cc(C(=O)Nc2nc(C)cs2)n1 [Example 16, 6′-Methyl-[3,4′]bipyridinyl-2′-carboxylic acid (4-methyl-thiazol-2-yl)-amide] | 7.77 |
| Cc1cc(-c2cc(Cl)cc(Cl)c2)cc(C(=O)Nc2nc(C)cs2)n1 [Example 17, 4-(3,5-Dichloro-phenyl)-6-methyl-pyridine-2-carboxylic acid (4-methyl-thiazol-2-yl)-amide] | 8.70 |
| Cc1cc(-c2cncnc2)cc(C(=O)Nc2nc(C)cs2)n1 [Example 18, 6-Methyl-4-pyrimidin-5-yl-pyridine-2-carboxylic acid (4-methyl-thiazol-2-yl)-amide] | 6.91 |

— patent US7951824B2, “4-aryl-pyridine-2-carboxyamide derivatives” (Hoffman-La Roche Inc., priority 2006, dated 2011)
